Data on eleven compounds can be found in patent US7176185B2, “Short peptide carrier system for cellular delivery of agent” (TSRL, Inc., priority 2003, dated 2007).

Data set [1] deals with T1, hpept1 dipeptide transporter (Homo sapiens, UniProt P46059).
T1 construct: expressed in transfected cells; host or cells: DC5 = human medulloblastoma cell line Dpar transfected with a eukaryotic expression plasmid holding the hPept1 gene
T1 sequence (P46059 1-708): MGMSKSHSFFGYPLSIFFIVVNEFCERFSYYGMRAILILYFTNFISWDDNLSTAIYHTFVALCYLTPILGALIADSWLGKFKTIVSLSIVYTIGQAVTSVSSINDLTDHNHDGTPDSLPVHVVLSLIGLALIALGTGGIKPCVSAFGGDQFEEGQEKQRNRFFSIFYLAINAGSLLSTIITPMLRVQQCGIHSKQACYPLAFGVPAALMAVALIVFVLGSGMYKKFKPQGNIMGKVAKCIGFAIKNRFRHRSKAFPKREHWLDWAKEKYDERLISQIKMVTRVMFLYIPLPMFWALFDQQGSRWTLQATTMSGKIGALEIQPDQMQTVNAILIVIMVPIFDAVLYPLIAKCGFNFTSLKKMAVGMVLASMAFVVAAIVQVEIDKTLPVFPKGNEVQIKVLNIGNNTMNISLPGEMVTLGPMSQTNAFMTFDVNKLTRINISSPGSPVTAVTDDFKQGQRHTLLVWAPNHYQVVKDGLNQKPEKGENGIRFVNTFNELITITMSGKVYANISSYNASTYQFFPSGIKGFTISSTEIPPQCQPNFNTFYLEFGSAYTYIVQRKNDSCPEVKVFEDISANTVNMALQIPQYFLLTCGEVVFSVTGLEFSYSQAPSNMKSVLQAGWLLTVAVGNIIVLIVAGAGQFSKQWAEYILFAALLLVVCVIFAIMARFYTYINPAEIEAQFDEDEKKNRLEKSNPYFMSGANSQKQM
Description: Inhibition of 3H-Gly-Sar uptake in DC5 cell line (Ki determination). The following applies: 50 uM 3H-Gly-Sar, 10 min, 37° C., unit inferred, mM, read-out: TSRL - Ki. It is filed as cell-based. The text has this: The developed system functions as an initial screen for interaction with the dipeptide transporter by measuring the ability of a given test compound to inhibit the uptake of the marker dipeptide ^3H-Gly-Sar. Using this system in a 96-well format, one can rapidly screen compounds for their ability to bind to the dipeptide transporter by measuring the inhibition constant (Ki) of the compound against Gly-Sar uptake. In this assay, a positive result indicates binding, but not necessarily transport. Positive results are assessed for actual transport in conventional uptake assays.
The inhibitory Ki for a given compound is determined in DC5 cell line using the radioactive substrate 3H-glycine-sarcosine (GS). DC5 cells were plated (12,000 cells/well) in 96-well tissue culture plates (Falcon) and allowed to grow for 2 days. The cells were washed once with 200 ul of uptake buffer and aspirated. The plates were cooled to 4° C. and 25 ul of uptake buffer containing 50 uM Gly-Sar (0.5 uCi/ml) was added. The uptake buffer also contained the test β-lactam antibiotic, Cefaclor, over a range of concentrations. Uptake was initiated by placing the plate in a shaker water bath (37° C.) and terminated at 10 min by rapid washing with multiple changes of 4° C. PBS (Sigma). The radioactive peptide was extracted from the cell layer with 200 ul of methanol:water (1:1) and counted in 4 ml of CytoScint ES™ scintillation cocktail (ICN). Non-linear regression analysis of the data was used to determine the IC50 using the solver function in Microsoft Excel spreadsheets.

The conditions of data set [2]: literature value (Bretschneider et al. 1999); 'parenteral' marks drugs given parenterally; cited from earlier work.
Data set [3] concerns the target T2, hPepT1 (Homo sapiens, UniProt P46059).
T2 construct: expressed in transfected cells; host or cells: DC5 = human medulloblastoma cell line Dpar transfected with a eukaryotic expression plasmid holding the hPept1 gene
T2 sequence (P46059 1-708): T1 sequence (P46059 1-708)
The data set is described as follows: Inhibition of LALA uptake into DC5 cells by competitive substrates. It is filed as cell-based. The following applies: 30 minutes; for Inhibition of LALA uptake (FIG. 7, specificity): 25 μM LALA, 20 mM dipeptide or 40 mM amino acid. On the procedure: After 30 minutes the cells are washed and the fluorescence measured in the cells.
DC5 and Dpar cells are incubated in transport buffer and the indicated concentrations of LALA added ? and (¦), respectively. These experiments are repeated in the presence of 20 mM Gly-Pro for DC5 (⋄) and Dpar (?). After 30 minutes, the cells are washed and processed for fluorescent determination. […] After 30 minutes the cells are washed and the fluorescence measured in the cells. […] Fluorescence imagining of LALA in DC5 cells is shown in FIG. 8, where cells on a polylysine coated slide are incubated in the transport buffer with 50 μM LALA in the presence (right image) or absence (left image) the hPepT1 competitive inhibitor Gly-Pro (20 mM) for 20 minutes at room temperature. Cells are washed with cold PBS and viewed with an inverted microscope and imaged with a digital camera, with the images being at the same magnification and exposure time.

Data set [4] addresses T3, DC5 cell line overexpressing HPEPT1 (Homo sapiens, UniProt P46059).
T3 construct: expressed in transfected cells; host or cells: DC5 = human medulloblastoma cell line Dpar transfected with a eukaryotic expression plasmid holding the hPept1 gene
T3 sequence (P46059 1-708): T1 sequence (P46059 1-708)
Description: LALA fluorescent uptake in DC5 cells. The format is cell-based. The settings on record: transport buffer, 30 minutes, fluorescence. On the procedure:
(§1) FIG. 6 is a graph showing the uptake of LALA in DC5 and Dpar as a function of LALA concentration. DC5 and Dpar cells are incubated in transport buffer and the indicated concentrations of LALA added ? and (¦), respectively. These experiments are repeated in the presence of 20 mM Gly-Pro for DC5 ? and Dpar (?). After 30 minutes, the cells are washed and processed for fluorescent determination.
[…] and not Dpar specifically uptake LALA. DC5 and Dpar cells are incubated in transport buffer and the indicated concentrations of LALA added ? and (¦), respectively. These experiments are repeated in the presence of 20 mM Gly-Pro for DC5 (⋄) and Dpar (?). After 30 minutes, the cells are washed and processed for fluorescent determination. […] After 30 minutes the cells are washed and the fluorescence measured in the cells. […] Because the marker probe is fluorescent, the system is amenable to more rapid throughput, through the use of automated fluorescent plate readers. Fluorescence imagining of LALA in DC5 cells is shown in FIG. 8, where cells on a polylysine coated slide are incubated in the transport buffer with 50 μM LALA in the presence (right image) or absence (left image) the hPepT1 competitive inhibitor Gly-Pro (20 mM) for 20 minutes at room temperature. […]

Data set [5] relates to Dpar cells. The data set is described as follows: LALA fluorescent uptake in parental Dpar cells. The settings on record: 30 minutes, fluorescence. The format is cell-based, human. On the procedure: as §1
FIG. 7 is a bar graph showing specificity of LALA uptake. 25 μM of LALA is incubated in the presence 20 mM Gly-Sar ? 20 mM Gly-Pro ? 40 mM phenylalanine ? and 40 mM proline ? in either the DC5 or the Dpar, cell line. After 30 minutes the cells are washed and the fluorescence measured in the cells. […] There is minimal LALA uptake in the parental line Dpar.
[…] and not Dpar specifically uptake LALA. […] After 30 minutes the cells are washed and the fluorescence measured in the cells. […] Because the marker probe is fluorescent, the system is amenable to more rapid throughput, through the use of automated fluorescent plate readers. Fluorescence imagining of LALA in DC5 cells is shown in FIG. 8, where cells on a polylysine coated slide are incubated in the transport buffer with 50 μM LALA in the presence (right image) or absence (left image) the hPepT1 competitive inhibitor Gly-Pro (20 mM) for 20 minutes at room temperature. […]

Turning to `CO/N=C(\C(=O)N[C@@H]1C(=O)N2C(C(=O)O)=C(CSc3nc(=O)c(=O)[nH]n3C)CS[C@H]12)c1csc(N)n1` [Ceftriaxon], in data set [1], the Ki is > 20 mM. Further, the Bioavailability in data set [2] is listed as <5 parenteral.

`NCC(=O)O.O=C(O)[C@@H]1CCCN1` [Gly-Pro, Glycine-Proline]: the “Inhibition of LALA uptake (FIG. 7, specificity)” value in data set [3] was “strongly inhibited”. Besides, in data set [3] (20 mM Gly-Pro, range of LALA concentrations), the “Inhibition of LALA uptake (FIGS. 5 and 6)” value is listed as “strongly inhibited”.

Take `CO/N=C(\C(=O)N[C@@H]1C(=O)N2C(C(=O)O)=C(COC(N)=O)CS[C@H]12)c1ccco1` [Cefuroxime]: in data set [1], the Ki was determined as 23.2 mM. Also, the Bioavailability in data set [2] is <1 parenteral. Turning to `CC1=C(C(=O)O)N2C(=O)[C@@H](NC(=O)[C@H](N)c3ccc(O)cc3)[C@H]2SC1` [Cefadroxil], the Ki in data set [1] was determined as 2.7 mM. The Bioavailability in data set [2] is given as 100. As for `N[C@@H](Cc1ccccc1)C(=O)O` [phenylalanine], the “Inhibition of LALA uptake (FIG. 7, specificity)” value in data set [3] is “not by amino acids”.

Turning to `Cn1nnnc1SCC1=C(C(=O)O)N2C(=O)[C@@H](NC(=O)[C@H](O)c3ccccc3)[C@H]2SC1` [Cefamandole], the inhibition constant (Ki) in data set [1] came out at 16.4 mM. For the same compound, in data set [2], the Bioavailability is on record as <1 parenteral. As to `O=C(O)[C@@H]1CCCN1` [proline], the “Inhibition of LALA uptake (FIG. 7, specificity)” value in data set [3] was “not by amino acids”. With `N[C@@H](C(=O)N[C@@H]1C(=O)N2C(C(=O)O)=C(Cl)CS[C@H]12)c1ccccc1` [Cefaclor], in data set [1], the inhibition constant (Ki) was 5.39 mM. The Bioavailability in data set [2] is recorded as 100. For `Cc1c(CC(=O)NCCCCC(NC(=O)C(C)N)C(=O)O)c(=O)oc2cc(N)ccc12` [LALA, L-Ala-Lys-Nε-AMCA], the “LALA uptake in DC5” value in data set [4] is listed as “specifically taken up”. In addition, the “LALA uptake in parental line Dpar” value in data set [5] is reported as “minimal”.

As for `CC(=O)OCC1=C(C(=O)O)N2C(=O)[C@@H](NC(=O)Cc3cccs3)[C@H]2SC1` [Cephalothin], the Ki in data set [1] is 11.1 mM. Moreover, the Bioavailability in data set [2] is <5 parenteral. Regarding `CC1=C(C(=O)O)N2C(=O)[C@@H](NC(=O)[C@H](N)C3=CCC=CC3)[C@H]2SC1` [Cephradine], the Ki in data set [1] came out at 7.02 mM. Moreover, in data set [2], the Bioavailability is 100.
